Assay results: patent US8846698B2, “Pyrrolo[2,3-d]pyrimidine tropomysin-related kinase inhibitors” (Pfizer Limited, priority 2011, dated 2014)

Each compound was assayed against TRKA (Homo sapiens (Human), UniProt P04629) (assay: Isolated TRK enzyme assay (HTRF KinEASE-TK), TRKA). Conditions: read-out: Trka enzyme (IC50).
Format: biochemical

TRKA, sequence (P04629 441-796): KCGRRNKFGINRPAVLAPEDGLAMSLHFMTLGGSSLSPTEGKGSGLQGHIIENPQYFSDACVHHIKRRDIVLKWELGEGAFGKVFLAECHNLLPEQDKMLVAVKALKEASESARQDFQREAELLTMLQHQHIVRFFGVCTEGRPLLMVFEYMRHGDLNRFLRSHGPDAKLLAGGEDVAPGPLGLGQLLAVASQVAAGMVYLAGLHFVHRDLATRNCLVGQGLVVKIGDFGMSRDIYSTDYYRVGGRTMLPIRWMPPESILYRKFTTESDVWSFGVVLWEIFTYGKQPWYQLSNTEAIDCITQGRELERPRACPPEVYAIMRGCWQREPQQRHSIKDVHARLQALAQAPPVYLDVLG

| IC50 | SMILES |
| --- | --- |
| 148 nM | Cc1[nH]c2ccc(F)cc2c1CC(=O)Nc1cncc(C(=O)c2cn(C(C)C)c3ncncc23)c1 [Example 125, 2-(5-fluoro-2-methyl-1H-indol-3-yl)-N-{5-[(7-isopropyl-7H-pyrrolo[2,3-d]pyrimidin-5-yl)carbonyl]pyridin-3-yl}acetamide] |
| 95.7 nM | CC(C)n1cc(C(=O)c2cncc(NC(=O)Cc3cn4cc(Cl)ccc4n3)c2)c2cncnc21 [Example 126, 2-(6-chloroimidazo[1,2-a]pyridin-2-yl)-N-{5-[(7-isopropyl-7H-pyrrolo[2,3-d]pyrimidin-5-yl)carbonyl]pyridin-3-yl}acetamide] |
| 3860 nM | COc1ccc2c(ccn2CC(=O)Nc2cncc(C(=O)c3cn(C(C)C)c4ncncc34)c2)n1 [Example 129, N-{5-[(7-isopropyl-7H-pyrrolo[2,3-d]pyrimidin-5-yl)carbonyl]pyridin-3-yl}-2-(5-methoxy-1H-pyrrolo[3,2-b]pyridin-1-yl)acetamide] |
| 284 nM | Cc1ccnn1CC(=O)Nc1cncc(C(=O)c2cn(C(C)C)c3ncncc23)c1 [Example 130, N-{5-[(7-isopropyl-7H-pyrrolo[2,3-d]pyrimidin-5-yl)carbonyl]pyridin-3-yl}-2-(5-methyl-1H-pyrazol-1-yl)acetamide] |
| 831 nM | Cc1cccc2ncn(CC(=O)Nc3cncc(C(=O)c4cn(C(C)C)c5ncncc45)c3)c12 [Example 131, N-{5-[(7-isopropyl-7H-pyrrolo[2,3-d]pyrimidin-5-yl)carbonyl]pyridin-3-yl}-2-(7-methyl-1H-benzimidazol-1-yl)acetamide] |
| 681 nM | CC(C)n1cc(C(=O)c2cncc(NC(=O)Cn3cnc4ccccc43)c2)c2cncnc21 [Example 133, 2-(1H-benzimidazol-1-yl)-N-{5-[(7-isopropyl-7H-pyrrolo[2,3-d]pyrimidin-5-yl)carbonyl]pyridin-3-yl}acetamide] |
| 312 nM | CC(C)n1cc(C(=O)c2cncc(NC(=O)Cn3nnc4ccccc43)c2)c2cncnc21 [Example 135, 2-(1H-benzotriazol-1-yl)-N-{5-[(7-isopropyl-7H-pyrrolo[2,3-d]pyrimidin-5-yl)carbonyl]pyridin-3-yl}acetamide] |
| 496 nM | CC(C)n1cc(C(=O)c2cncc(NC(=O)Cc3cc(-c4ccccc4)c[nH]3)c2)c2cncnc21 [Example 137, N-{5-[(7-isopropyl-7H-pyrrolo[2,3-d]pyrimidin-5-yl)carbonyl]pyridin-3-yl}-2-(4-phenyl-1H-pyrrol-2-yl)acetamide] |
| 8310 nM | CCc1nc2cccnc2n1CC(=O)Nc1cncc(C(=O)c2cn(C(C)C)c3ncncc23)c1 [Example 138, 2-(2-ethyl-3H-imidazo[4,5-b]pyridin-3-yl)-N-{5-[(7-isopropyl-7H-pyrrolo[2,3-d]pyrimidin-5-yl)carbonyl]pyridin-3-yl}acetamide] |
| 219 nM | CC(C)n1cc(C(=O)c2cncc(NC(=O)Cc3ccn(-c4ccccc4)c3)c2)c2cncnc21 [Example 140, N-{5-[(7-isopropyl-7H-pyrrolo[2,3-d]pyrimidin-5-yl)carbonyl]pyridin-3-yl}-2-(1-phenyl-1H-pyrrol-3-yl)acetamide] |
| 1380 nM | CCc1nc2ccccc2n1CC(=O)Nc1cncc(C(=O)c2cn(C(C)C)c3ncncc23)c1 [Example 142, 2-(2-ethyl-1H-benzimidazol-1-yl)-N-{5-[(7-isopropyl-7H-pyrrolo[2,3-d]pyrimidin-5-yl)carbonyl]pyridin-3-yl}acetamide] |
| 4730 nM | CC(C)n1cc(C(=O)c2cncc(NC(=O)Cc3cn4cccnc4n3)c2)c2cncnc21 [Example 143, 2-imidazo[1,2-a]pyrimidin-2-yl-N-{5-[(7-isopropyl-7H-pyrrolo[2,3-d]pyrimidin-5-yl)carbonyl]pyridin-3-yl}acetamide] |
| 93.4 nM | CC(C)n1cc(C(=O)c2cncc(NC(=O)Cc3c[nH]c4c(Cl)cccc34)c2)c2cncnc21 [Example 148, 2-(7-chloro-1H-indol-3-yl)-N-{5-[(7-isopropyl-7H-pyrrolo[2,3-d]pyrimidin-5-yl)carbonyl]pyridin-3-yl}acetamide] |
| 82.5 nM | COc1ccc(CC(=O)Nc2cncc(C(=O)c3cn(C(C)C)c4ncncc34)c2)cn1 [Example 152, N-{5-[(7-isopropyl-7H-pyrrolo[2,3-d]pyrimidin-5-yl)carbonyl]pyridin-3-yl}-2-(6-methoxypyridin-3-yl)acetamide] |
| 71.5 nM | Cc1ccc2[nH]c(C)c(CC(=O)Nc3cncc(C(=O)c4cn(C(C)C)c5ncncc45)c3)c2c1 [Example 153, 2-(2,5-dimethyl-1H-indol-3-yl)-N-{5-[(7-isopropyl-7H-pyrrolo[2,3-d]pyrimidin-5-yl)carbonyl]pyridin-3-yl}acetamide] |
| 133 nM | COc1ccc2[nH]c(C)c(CC(=O)Nc3cncc(C(=O)c4cn(C(C)C)c5ncncc45)c3)c2c1 [Example 156, N-{5-[(7-isopropyl-7H-pyrrolo[2,3-d]pyrimidin-5-yl)carbonyl]pyridin-3-yl}-2-(5-methoxy-2-methyl-1H-indol-3-yl)acetamide] |

The remaining lines, values behind:

| SMILES | IC50 |
| --- | --- |
| Cc1nc2ccccc2n1CC(=O)Nc1cncc(C(=O)c2cn(C(C)C)c3ncncc23)c1 [Example 127, N-{5-[(7-isopropyl-7H-pyrrolo[2,3-d]pyrimidin-5-yl)carbonyl]pyridin-3-yl}-2-(2-methyl-1H-benzimidazol-1-yl)acetamide] | 1330 nM |
| CC(C)n1cc(C(=O)c2cncc(NC(=O)Cc3cn4ccccc4n3)c2)c2cncnc21 [Example 128, 2-imidazo[1,2-a]pyridin-2-yl-N-{5-[(7-isopropyl-7H-pyrrolo[2,3-d]pyrimidin-5-yl)carbonyl]pyridin-3-yl}acetamide] | 206 nM |
| CC(C)n1cc(C(=O)c2cncc(NC(=O)Cc3c[nH]c4ccccc34)c2)c2cncnc21 [Example 132, 2-(1H-indol-3-yl)-N-{5-[(7-isopropyl-7H-pyrrolo[2,3-d]pyrimidin-5-yl)carbonyl]pyridin-3-yl}acetamide] | 131 nM |
| Cc1cc(CC(=O)Nc2cncc(C(=O)c3cn(C(C)C)c4ncncc34)c2)[nH]n1 [Example 134, N-{5-[(7-isopropyl-7H-pyrrolo[2,3-d]pyrimidin-5-yl)carbonyl]pyridin-3-yl}-2-(3-methyl-1H-pyrazol-5-yl)acetamide] | 330 nM |
| CC(C)n1cc(C(=O)c2cncc(NC(=O)Cc3cn(C)c4ccccc34)c2)c2cncnc21 [Example 136, N-{5-[(7-isopropyl-7H-pyrrolo[2,3-d]pyrimidin-5-yl)carbonyl]pyridin-3-yl}-2-(1-methyl-1H-indol-3-yl)acetamide] | 334 nM |
| CC(C)n1cc(C(=O)c2cncc(NC(=O)Cc3c[nH]c4ccc(Cl)cc34)c2)c2cncnc21 [Example 139, 2-(5-chloro-1H-indol-3-yl)-N-{5-[(7-isopropyl-7H-pyrrolo[2,3-d]pyrimidin-5-yl)carbonyl]pyridin-3-yl}acetamide] | 65.7 nM |
| Cc1ccc2[nH]cc(CC(=O)Nc3cncc(C(=O)c4cn(C(C)C)c5ncncc45)c3)c2c1 [Example 141, N-{5-[(7-isopropyl-7H-pyrrolo[2,3-d]pyrimidin-5-yl)carbonyl]pyridin-3-yl}-2-(5-methyl-1H-indol-3-yl)acetamide] | 59.5 nM |
| CC(C)n1cc(C(=O)c2cncc(NC(=O)Cc3n[nH]c4ccccc34)c2)c2cncnc21 [Example 144, 2-(1H-indazol-3-yl)-N-{5-[(7-isopropyl-7H-pyrrolo[2,3-d]pyrimidin-5-yl)carbonyl]pyridin-3-yl}acetamide] | 71.5 nM |
| COc1cc(F)cc2ccn(CC(=O)Nc3cncc(C(=O)c4cn(C(C)C)c5ncncc45)c3)c12 [Example 145, 2-(5-fluoro-7-methoxy-1H-indol-1-yl)-N-{5-[(7-isopropyl-7H-pyrrolo[2,3-d]pyrimidin-5-yl)carbonyl]pyridin-3-yl}acetamide] | 37.4 nM |
| CC(C)n1cc(C(=O)c2cncc(NC(=O)Cc3cn(Cc4ccccc4)nn3)c2)c2cncnc21 [Example 146, 2-(1-benzyl-1H-1,2,3-triazol-4-yl)-N-{5-[(7-isopropyl-7H-pyrrolo[2,3-d]pyrimidin-5-yl)carbonyl]pyridin-3-yl}acetamide] | 573 nM |
| CC(C)n1cc(C(=O)c2cncc(NC(=O)Cc3nn(C)c4cc(Cl)ccc34)c2)c2cncnc21 [Example 147, 2-(6-chloro-1-methyl-1H-indazol-3-yl)-N-{5-[(7-isopropyl-7H-pyrrolo[2,3-d]pyrimidin-5-yl)carbonyl]pyridin-3-yl}acetamide] | 76.4 nM |
| Cc1c(-c2ccccc2)cnn1CC(=O)Nc1cncc(C(=O)c2cn(C(C)C)c3ncncc23)c1 [Example 149, N-{5-[(7-isopropyl-7H-pyrrolo[2,3-d]pyrimidin-5-yl)carbonyl]pyridin-3-yl}-2-(5-methyl-4-phenyl-1H-pyrazol-1-yl)acetamide] | 3570 nM |
| CC(C)n1cc(C(=O)c2cncc(NC(=O)Cc3cncc(Br)c3)c2)c2cncnc21 [Example 150, 2-(5-bromopyridin-3-yl)-N-{5-[(7-isopropyl-7H-pyrrolo[2,3-d]pyrimidin-5-yl)carbonyl]pyridin-3-yl}acetamide] | 51 nM |
| CC(C)n1cc(C(=O)c2cncc(NC(=O)Cc3ccccn3)c2)c2cncnc21 [Example 151, N-{5-[(7-isopropyl-7H-pyrrolo[2,3-d]pyrimidin-5-yl)carbonyl]pyridin-3-yl}-2-pyridin-2-ylacetamide] | 232 nM |
| Cc1ccc(CC(=O)Nc2cncc(C(=O)c3cn(C(C)C)c4ncncc34)c2)cn1 [Example 154, N-{5-[(7-isopropyl-7H-pyrrolo[2,3-d]pyrimidin-5-yl)carbonyl]pyridin-3-yl}-2-(6-methylpyridin-3-yl)acetamide] | 94.1 nM |
| Cc1ccc2ccc(CC(=O)Nc3cncc(C(=O)c4cn(C(C)C)c5ncncc45)c3)cc2n1 [Example 155, N-{5-[(7-isopropyl-7H-pyrrolo[2,3-d]pyrimidin-5-yl)carbonyl]pyridin-3-yl}-2-(2-methylquinolin-7-yl)acetamide] | 49.1 nM |
| CC(C)n1cc(C(=O)c2cncc(NC(=O)Cc3ccc4nnnn4n3)c2)c2cncnc21 [Example 157, N-{5-[(7-isopropyl-7H-pyrrolo[2,3-d]pyrimidin-5-yl)carbonyl]pyridin-3-yl}-2-tetrazolo[1,5-b]pyridazin-6-ylacetamide] | 174 nM |
